Experimental data from ChEMBL document CHEMBL4118290, “Synthesis of 1,5-Anhydro-d-fructose derivatives and evaluation of their inflammasome inhibitors” (Bioorg Med Chem, 2018).
Active and inactive are the calls of the source. No cut-off for these calls is given here.

Key:
[1] = target: NACHT, LRR and PYD domains-containing protein 3 (Mus musculus, UniProt Q8R4B8); assay: (§1) Inhibition of nigericin-induced NLRP3 inflammasome activation in C57BL/6 mouse bone marrow derived macrophages assessed as reduction in LPS-stimulated IL-1beta secretion incubated for 1 hr followed by nigericin addition measured after 1 hr by ELISA
[2] = target: NACHT, LRR and PYD domains-containing protein 3 (Mus musculus) (UniProt Q8R4B8); assay: Inhibition of nigericin-induced NLRP3-dependent pyroptosis in C57BL/6 mouse bone marrow derived macrophages assessed as restoration of LPS-stimulated decrease in intracellular ATP level incubated for 1 hr followed by nigericin addition measured after 1 hr by cell titer-glo reagent based luminescence assay
[3] = target: T1, NACHT, LRR and PYD domains-containing protein 3 (Homo sapiens, UniProt Q96P20); assay: Inhibition of nigericin-induced NLRP3 inflammasome activation in PMA-differentiated human THP1 cells assessed as reduction in LPS-stimulated IL-1beta secretion incubated for 1 hr prior to stimulation with nigericin for 1 hr by quanti-blue based SEAP reporter gene assay
[4] = target: NACHT, LRR and PYD domains-containing protein 3 (Mus musculus) (UniProt Q8R4B8); assay: as §1, with “LPS-stimulated processing of pro-IL-1beta to mature” for “LPS-stimulated”, “in supernatant at 100 uM” for “secretion”, “Western blot analysis” for “ELISA”
[5] = target: NACHT, LRR and PYD domains-containing protein 3 (Mus musculus) (UniProt Q8R4B8); assay: as §1
[6] = target: NACHT, LRR and PYD domains-containing protein 3 (Mus musculus) (UniProt Q8R4B8); assay: as §1, with “LPS-stimulated processing of pro-IL-1beta to mature” for “LPS-stimulated”, “in cell lysate at 100 uM” for “secretion”, “Western blot analysis” for “ELISA”
[7] = target: T1, NACHT, LRR and PYD domains-containing protein 3; assay: (§2) Inhibition of nigericin-induced NLRP3 inflammasome activation in PMA-differentiated human THP1 cells assessed as reduction in LPS-stimulated processing of pro-IL-1beta to mature IL-1beta in cell lysate at 3.4 mM incubated for 1 hr followed by nigericin addition measured after 1 hr by Western blot analysis
[8] = target: NACHT, LRR and PYD domains-containing protein 3 (Mus musculus) (UniProt Q8R4B8); assay: as §2, with “C57BL/6 mouse bone marrow derived macrophages” for “PMA-differentiated human THP1 cells”, “6.8” for “3.4”
[9] = target: T1, NACHT, LRR and PYD domains-containing protein 3; assay: as §2, with “supernatant” for “cell lysate”
[10] = target: NACHT, LRR and PYD domains-containing protein 3 (Mus musculus) (UniProt Q8R4B8); assay: as §1, with “LPS-stimulated processing of pro-IL-1beta to mature” for “LPS-stimulated”, “in supernatant at 6.8 mM” for “secretion”, “Western blot analysis” for “ELISA”
[11] = target: T1, NACHT, LRR and PYD domains-containing protein 3; assay: Inhibition of nigericin-induced NLRP3 inflammasome activation in PMA-differentiated human THP1 cells assessed as reduction in LPS-stimulated IL-1beta secretion at 60 mM incubated for 1 hr prior to stimulation with nigericin for 1 hr by ELISA

T1 sequence (Q96P20 whole entry, the tested form may be a part): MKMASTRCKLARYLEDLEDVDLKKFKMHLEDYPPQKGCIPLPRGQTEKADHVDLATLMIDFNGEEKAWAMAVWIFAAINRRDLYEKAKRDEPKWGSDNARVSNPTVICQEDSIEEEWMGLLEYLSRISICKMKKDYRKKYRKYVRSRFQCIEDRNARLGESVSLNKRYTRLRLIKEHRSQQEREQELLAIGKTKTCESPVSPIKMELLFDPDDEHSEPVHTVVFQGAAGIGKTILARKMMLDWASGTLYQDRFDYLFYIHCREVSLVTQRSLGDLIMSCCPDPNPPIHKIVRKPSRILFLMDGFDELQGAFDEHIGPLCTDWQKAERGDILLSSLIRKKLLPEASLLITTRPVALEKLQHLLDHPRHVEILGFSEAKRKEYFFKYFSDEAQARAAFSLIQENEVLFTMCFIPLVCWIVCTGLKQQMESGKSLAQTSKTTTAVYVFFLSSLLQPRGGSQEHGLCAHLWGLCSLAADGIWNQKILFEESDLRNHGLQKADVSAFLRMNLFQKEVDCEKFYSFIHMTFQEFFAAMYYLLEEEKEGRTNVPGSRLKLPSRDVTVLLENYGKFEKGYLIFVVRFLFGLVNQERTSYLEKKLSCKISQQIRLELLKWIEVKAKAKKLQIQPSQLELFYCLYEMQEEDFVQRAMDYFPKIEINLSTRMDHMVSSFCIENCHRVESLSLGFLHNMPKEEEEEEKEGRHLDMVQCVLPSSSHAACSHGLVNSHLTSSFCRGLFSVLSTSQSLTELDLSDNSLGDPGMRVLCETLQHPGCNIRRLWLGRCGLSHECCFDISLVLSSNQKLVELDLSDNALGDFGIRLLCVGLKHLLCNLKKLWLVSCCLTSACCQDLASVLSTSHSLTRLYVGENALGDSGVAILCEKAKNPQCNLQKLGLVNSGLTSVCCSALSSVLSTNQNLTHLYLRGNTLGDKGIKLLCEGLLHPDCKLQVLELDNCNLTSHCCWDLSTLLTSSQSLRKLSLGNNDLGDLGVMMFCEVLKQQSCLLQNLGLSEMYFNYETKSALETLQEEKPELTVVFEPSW
Sequence of NACHT, LRR and PYD domains-containing protein 3 (Mus musculus, UniProt Q8R4B8) (Q8R4B8 whole entry, the tested form may be a part): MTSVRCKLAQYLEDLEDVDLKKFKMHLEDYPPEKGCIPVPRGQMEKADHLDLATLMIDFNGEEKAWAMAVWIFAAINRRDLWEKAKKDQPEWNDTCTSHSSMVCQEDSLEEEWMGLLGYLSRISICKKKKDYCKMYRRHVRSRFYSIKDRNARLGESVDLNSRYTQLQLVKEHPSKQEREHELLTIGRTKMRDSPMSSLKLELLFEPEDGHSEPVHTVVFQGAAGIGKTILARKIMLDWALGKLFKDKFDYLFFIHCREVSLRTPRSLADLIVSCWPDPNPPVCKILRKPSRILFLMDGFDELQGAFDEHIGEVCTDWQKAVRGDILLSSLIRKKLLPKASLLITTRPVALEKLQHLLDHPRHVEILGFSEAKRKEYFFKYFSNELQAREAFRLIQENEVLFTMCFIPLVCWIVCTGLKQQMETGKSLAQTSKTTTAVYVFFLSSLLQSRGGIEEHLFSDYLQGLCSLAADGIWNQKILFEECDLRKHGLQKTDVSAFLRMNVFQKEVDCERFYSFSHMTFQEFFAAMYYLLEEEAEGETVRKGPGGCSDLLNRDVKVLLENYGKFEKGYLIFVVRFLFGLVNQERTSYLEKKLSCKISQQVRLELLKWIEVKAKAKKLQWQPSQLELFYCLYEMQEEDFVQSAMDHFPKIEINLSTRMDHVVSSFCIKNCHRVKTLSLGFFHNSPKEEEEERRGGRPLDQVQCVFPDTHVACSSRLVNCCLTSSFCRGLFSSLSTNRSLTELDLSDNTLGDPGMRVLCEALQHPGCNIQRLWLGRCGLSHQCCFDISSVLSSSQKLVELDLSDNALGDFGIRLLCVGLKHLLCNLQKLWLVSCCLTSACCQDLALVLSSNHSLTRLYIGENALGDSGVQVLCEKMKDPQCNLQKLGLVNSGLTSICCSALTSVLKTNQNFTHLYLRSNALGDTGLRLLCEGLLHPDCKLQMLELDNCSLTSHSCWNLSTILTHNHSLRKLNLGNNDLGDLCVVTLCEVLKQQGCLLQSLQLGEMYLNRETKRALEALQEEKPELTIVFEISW
Sequence of NACHT, LRR and PYD domains-containing protein 3 (Mus musculus) (Q8R4B8 whole entry, the tested form may be a part): as above

IC50 [1] [µM]	inhibition [2]	IC50 [3] [µM]	inhibition [5]	further results	Structure (SMILES)
8.4	Dose-dependent effect	5.1	–	–	CCCCCCCC(=O)OC[C@@H]1C=CC(=O)CO1
5.7	Dose-dependent effect	4.3	–	–	CC(=O)OC[C@@H]1C=CC(=O)CO1
1.2	–	6.6	–	–	O=C1C=C[C@H]2CO[C@@H]1O2
0.8	Dose-dependent effect	4.8	–	–	O=C1C(F)=C[C@@H]2CO[C@H]1O2 (single isomer, unassigned)
3.2	Dose-dependent effect	3.7	–	–	CC(=O)OC[C@@H]1C=C(F)C(=O)CO1
16	Dose-dependent effect	–	Dose-dependent effect	inhibition [4]: Active; inhibition [6]: Active	O=C1C=C[C@@H](CO)OC1
1600	Dose-dependent effect	2300	Dose-dependent effect	inhibition [7]: Active; inhibition [8]: Active; inhibition [9]: Active; inhibition [10]: Active	O=C1CO[C@H](CO)[C@@H](O)C1
29000	–	–	Dose-dependent effect	inhibition [11]: inactive	O=C1CO[C@H](CO)[C@@H](O)[C@@H]1O
1	Dose-dependent effect	3.7	–	–	CC(=O)OC1=C(F)C(OC(C)=O)[C@@H]2CO[C@H]1O2 (stereo partly specified)
3.6	Dose-dependent effect	3.6	–	–	CCCC(=O)OC[C@@H]1C=CC(=O)CO1
